# Assay results: article PMC9822155, “Synthesis and Antiproliferative Activity against Cancer Cells of Indole-Aryl-Amide Derivatives” (Molecules, 2022)
# Assays:
# δ-OR = target: T1, δ-OR (Homo sapiens, UniProt P41143); assay: Radioligand binding assay, δ-OR ([3H]deltorphin-2 displacement); conditions: [3H]deltorphin-2, membranes of CHO cells with human recombinant OR; ± SEM (n ≥ 3)
# T1 construct: purchased PerkinElmer (Krakow, Poland); host or cells: CHO cells (membranes)
# Protocol: In order to evaluate the affinity of the compounds for μ-, δ-, κ-ORs, radioligand binding assays were performed. Displacement of radioligands, [^3H]DAMGO (μ-OR selective), [^3H]deltorphin-2 (δ-OR selective), and [^3H]U-69593 (κ-OR selective) by the synthetic analogs was investigated in the commercial membranes of CHO cells transfected with human recombinant ORs. […] Due to the modest receptor affinities, the functional activity of the compounds was not investigated.
# Opioid radioligands, [^3H]DAMGO, [^3H]deltorphin-2 and [^3H]U-69593, and human recombinant opioid receptors came from PerkinElmer (Krakow, Poland). GF/B glass fiber strips were purchased from Whatman (Brentford, UK).
# To determine the affinity of peptide analogs at the respective receptors, competition binding experiments were performed. Commercial membranes of CHO cells stably expressing human opioid receptors and the competing radioligands, [^3H]DAMGO, [^3H]deltorphin-2, and [^3H]U-69593 for μ-OR, δ-OR, and κ-OR, respectively, were used. Membranes were incubated in 0.5 mL volume of 50 mM Tris/HCl (pH = 7.4), 0.5% bovine serum albumin (BSA), with a number of peptidase inhibitors (bacitracin, bestatin, captopril) and various concentrations of radioligands for 2 h at 25 °C. Non-specific binding was assessed in the presence of […]. Three independent experiments for each assay were carried out in duplicate. The data were analyzed by a nonlinear least square regression analysis computer program Graph Pad PRISM 6.0 (Graph Pad Software Inc., San Diego, CA, USA). The IC50 values were determined from the logarithmic concentration-displacement curves, and the values of the inhibitory constants (Ki) were calculated according to the equation of Cheng and Prusoff.
# [1] = tested on: 3T3 (mouse embryonic fibroblast) cells; assay: MTT viability assay, 3T3; assay type: cell-based; conditions: 24 h, normal cells
# Excerpt: (§1) To investigate whether the compounds have an antitumor activity, we performed in vitro viability assays against a panel of cancer cell lines: HT29 (human colorectal adenocarcinoma), HeLa (human cervical carcinoma), IGROV-1 (human ovarian carcinoma), MCF7 (human breast cancer), PC-3 (human prostate adenocarcinoma), and Jurkat J6 (human […]). The I407 (human embryonic intestinal) and 3T3 (mouse embryonic fibroblast) cells were used as controls. The growth inhibitory concentration was determined by incubating the cells with increasing concentrations (0.01–500 μM) of the compounds for 24 h. Data obtained from cell growth assays were elaborated to assess the concentration of cell viability (IC50) and selectivity indices (SI), and the results are shown in Table 2 and Table 3, respectively.
# (§2) HT29 human colorectal adenocarcinoma cells, HeLa human cervix adenocarcinoma cells, MCF7 human breast adenocarcinoma cells, PC-3 human prostate adenocarcinoma cells, J6 Jurkat Clone E6-1 acute T cell leukemia, the healthy I407 human intestine cells, and mouse embryonic fibroblast 3T3 fibroblasts as controls cell lines were purchased from American Type Culture Collection (ATCC, Manassas, VA). The human ovarian cancer cell line IGROV1 has been kindly provided by Prof. Colnaghi (Istituto Nazionale Tumori (IRCCS) (Milano, Italy). Cells were cultured in RPMI 1640 medium (Labtek Eurobio, Milan, Italy), supplemented with 10% FCS (Euroclone, Milano, Italy) and 2 mM L-glutamine (Sigma-Aldrich, Milano, Italy), at 37 °C, and a 5% CO2 atmosphere. The compounds were dissolved in DMSO in a 30–40 mM stock solution. In cell treatments, the final DMSO concentration never exceeded 0.1%.
# (§3) Cells were seeded at 1.5 × 10^4 cells/well in a 96-well culture plastic plate (Sarsted, Milan, Italy), and after 24 h of growth were exposed to increasing concentrations of each distinct compound (from 0.010 μM to 500 μM) solubilized in RPMI 1640 medium. MTT assay was performed according to the literature. In brief, after 24 h of treatment, the culture medium was replaced with 0.1 mL of 3-(4,5-dimethylthiazolyl-2)-2,5-diphenyltetrazolium bromide (MTT, Sigma-Aldrich, Milano, Italy) dissolved in PBS at the concentration of 0.2 mg/mL, and samples were incubated for 2 h at 37 °C. The absorbance at 570 nm was measured using a multiwell plate reader (Tecan, Männemorf, Switzerland), and data were analyzed by Prism GraphPad software, and expressed as IC50 μM.
# [2] = tested on: IGROV-1 (human ovarian carcinoma) cells; assay: MTT viability assay, IGROV-1; assay type: cell-based; conditions: 24 h
# Excerpt: as §1, §2, §3
# Jurkat J6 cells = assay: MTT viability assay, Jurkat J6; assay type: cell-based, human
# Excerpt: as §1, §2, §3
# HT29 cells = assay: Cell cycle analysis by flow cytometry (PI staining); assay type: cell-based, human; conditions: HT29, 5 μM, 24 h
# Protocol: HT29 cells were treated with 1 or 5 μM 5 for 24 h and analyzed by flow cytometry after DNA staining. […] In contrast, 5-treated HT29 cells accumulated in the G0/G1 phase in a dose-dependent manner, with a nearly complete synchronization (84% ± 0.9) after 5 μM treatment.
# HT29 were plated at density of 20,000 cell/cm^2 in dish and after 24 h treated with 1 or 5 μM of 5 for 24 h. The samples were prepared in according to Calonghi. In brief, untreated and treated cells were detached, washed in PBS and the pellet was finally re-suspended in 0.01% Nonidet P-40 (Sigma-Aldrich, Milano, Italy), 10 μg/mL RNase (Sigma-Aldrich, Milano, Italy), 0.1% sodium citrate (Sigma-Aldrich, Milano, Italy), 50 μg/mL propidium iodide (PI) (Sigma-Aldrich, Milano, Italy), for 30 min at room temperature in the dark. Propidium iodide (PI) fluorescence was acquired on a linear scale and analysed by Modfit software version 5.2 (USA). Flow cytometric assays were performed on a Brite HS flow cytometer (Bio-Rad, Watford, UK) equipped with a Xe/Hg lamp.
# T1 sequence (P41143 whole entry): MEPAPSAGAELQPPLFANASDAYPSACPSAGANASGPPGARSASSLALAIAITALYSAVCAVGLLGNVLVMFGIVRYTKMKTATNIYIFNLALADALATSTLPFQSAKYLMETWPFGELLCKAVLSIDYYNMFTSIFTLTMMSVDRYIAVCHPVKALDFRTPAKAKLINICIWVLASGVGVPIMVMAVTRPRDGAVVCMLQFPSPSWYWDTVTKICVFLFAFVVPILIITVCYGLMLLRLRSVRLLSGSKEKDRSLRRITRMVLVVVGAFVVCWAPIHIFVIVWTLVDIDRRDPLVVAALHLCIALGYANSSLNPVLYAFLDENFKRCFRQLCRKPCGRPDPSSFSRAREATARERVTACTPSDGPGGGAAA
structure (smiles),measurement,setting,value
Nc1ccc(CN(Cc2ccc(O)cc2)C(=O)Cc2c[nH]c3ccccc23)cc1 [Compound 5],Ki,δ-OR,10.8 ± 1.3 µM
same,IC50,[1],32 ± 0.02 µM
same,IC50,[2],> 500 µM
same,Selectivity Index IC503T3/ IC50J6,Jurkat J6 cells; 3T3 normal cells as reference,86.487
same,IC50,"Jurkat J6 cells; Homo sapiens, Jurkat, MTT, 24 h",0.37 ± 0.04 µM
same,Cells in G0/G1 phase,HT29 cells,84% ± 0.9
